Assay results taken from paper PMC12802956, “Dalbavancin dosing in a severely underweight person with prosthetic valve endocarditis: the critical role of proactive therapeutic drug monitoring” (Journal of Antimicrobial Chemotherapy, 2025).
Like-named read-outs stand apart in the source and are kept apart here.

Legend:
[1] = cited from earlier work
Description: As a result, severely underweight patients may theoretically be at risk of drug overexposure when treated with the conventional 1 ...

[2] = Therapeutic drug monitoring of dalbavancin plasma concentrations (Cmin, Cmax) in a severely underweight patient; format: in vivo, human
Protocol: Following multidisciplinary consultation, a dosing regimen of dalbavancin 1000 mg administered on day 1 and day 8 was initiated. Subsequent dosing intervals were guided based on TDM results, assessing both minimum (Cmin, within 1 h before the injection) and maximum (Cmax, 30–60 min after the end of infusion) dalbavancin plasma concentrations, as previously described.[3],[4] Cmin and Cmax values were incorporated into log-linear regression models by plotting the logarithm of dalbavancin plasma concentrations against time, to estimate individualized timing of subsequent doses, with the aim of maintaining Cmin levels above 8 mg/L (based on a breakpoint MIC of […]).[3–7],[9]
The quantification of dalbavancin plasma concentrations was performed using a previously validated liquid chromatography–tandem mass spectrometry method.[10] The volume of distribution was estimated as the ratio between the dalbavancin dose and the mean Cmax concentration. Written informed consent for all medical procedures and interventions performed in accordance with clinical practice was obtained from the patient.

Corynebacterium striatum = assay: Clinical course of prosthetic aortic valve infective endocarditis under dalbavancin therapy; format: in vivo, human; settings: single patient
Description: (§1) We report the case of a patient who required initiation of dalbavancin therapy in November 2024 for infective endocarditis of a biological aortic valve (replaced April 2024) caused by Corynebacterium striatum. […] Due to a high surgical risk, the patient was deemed ineligible for repeat cardiac surgery.
The eighth dalbavancin dose was scheduled 50 days after the previous administration.

[3] = Tolerability of earlier antibiotic therapy in the patient; format: in vivo, human; settings: single patient, treatment before the start of dalbavancin
Description: as §1

Row | Compound | volume of distribution ([1]; normal-weight individuals) | volume of distribution ([1]; obese individuals) | volume of distribution ([1]; overweight individuals) | Cmin (minimum dalbavancin plasma concentration) ([2]; patient, 28-38 kg, 1000 mg on day 1 and day 8, then TDM-guided intervals, seven administrations over 217 days, sampled within 1 h before the injection, plasma, LC-MS/MS, at each TDM assessment) | volume of distribution, range ([2]; severely underweight patient (28-38 kg), dose/Cmax, range over the observation period) | mean volume of distribution ([2]; severely underweight patient (28-38 kg), ratio between dalbavancin dose and mean Cmax (30-60 min after end of infusion), plasma LC-MS/MS, mean ± spread over administrations) | volume of distribution (approximate, as discussed) ([2]; severely underweight patient, markedly reduced compared with reported values) | PET scan finding (Corynebacterium striatum; PET scan 6 months after initiation of dalbavancin therapy) | clinical status at last follow-up visit (Corynebacterium striatum; last follow-up visit after seven dalbavancin administrations, negative inflammatory markers) | tolerability in the patient [3]
1 | CN[C@H]1C(=O)N[C@@H]2Cc3ccc(cc3)Oc3cc4cc(c3O[C@@H]3O[C@H](C(=O)O)[C@@H](O)[C@H](O)[C@H]3NC(=O)CCCCCCCCC(C)C)Oc3ccc(cc3Cl)[C@@H](O)[C@@H]3NC(=O)[C@H](NC(=O)[C@@H]4NC(=O)[C@@H](NC2=O)c2cc(cc(O)c2Cl)Oc2cc1ccc2O)c1ccc(O)c(c1)-c1c(O[C@H]2O[C@H](CO)[C@@H](O)[C@H](O)[C@@H]2O)cc(O)cc1[C@@H](C(=O)NCCCN(C)C)NC3=O [dalbavancin, Dalbavancin] | 3 to 4 L | 6 to 7 L | 4 to 5 L | exceeded 8 mg/L | 2.2 to 3.1 L | 2.7 ± 0.4 L | 2 to 3 L | stability of the infectious process | no fever or signs of systemic infection | 
2 | vancomycin |  |  |  |  |  |  |  |  |  | discontinued due to a cutaneous adverse reaction
